Assay results from patent US9708306B2, “Benzimidazole derivatives and preparation process and pharmaceutical uses thereof” (WUHAN LL SCIENCE AND TECHNOLOGY DEVELOPMENT CO., LTD, priority 2015, dated 2017).
Values joined by “and” are separate entries in the source; they are usually repeats but may differ in a detail not shown here. Equal values may be shown once. Read-outs that look alike come from different tables or passages of the source.

What was measured:
[1] = test system: renovascular hypertensive rats; test: Effect on reducing blood pressure of renovascular hypertensive rats by single oral administration; format: in vivo, Wistar rats; details: for change in vivo at 0.5 mg/kg / inhibition in vivo at 0.5 mg/kg / change in vivo at 1 mg/kg / inhibition in vivo at 1 mg/kg / change in vivo at 2 mg/kg / inhibition in vivo at 2 mg/kg: Rattus norvegicus, single oral administration; for change in vivo at 0.5 mg/kg / change in vivo at 1 mg/kg / change in vivo at 2 mg/kg: RHR, read-out: Variations on heart rate; for inhibition in vivo at 0.5 mg/kg / inhibition in vivo at 1 mg/kg / inhibition in vivo at 2 mg/kg: two-kidney one-clip RHR, measured 1-10 h, read-out: Maximum blood pressure reduction
normal rats = test: Effect on blood pressure of normal rats by single oral administration; format: in vivo, Wistar rats; details: for inhibition in vivo at 0.5 mg/kg / inhibition in vivo at 1 mg/kg / inhibition in vivo at 2 mg/kg / change in vivo at 0.5 mg/kg / change in vivo at 1 mg/kg / change in vivo at 2 mg/kg: Rattus norvegicus, po, single, normal rats; for inhibition in vivo at 0.5 mg/kg / inhibition in vivo at 1 mg/kg / inhibition in vivo at 2 mg/kg: 8 h, read-out: blood pressure reduction at 8 h after the administration; for inhibition in vivo at 0.5 mg/kg / change in vivo at 0.5 mg/kg: 0.5 mg/kg p.o.; for inhibition in vivo at 1 mg/kg / change in vivo at 1 mg/kg: 1.0 mg/kg p.o.; for inhibition in vivo at 2 mg/kg / change in vivo at 2 mg/kg: 2.0 mg/kg p.o.; for change in vivo at 0.5 mg/kg / change in vivo at 1 mg/kg / change in vivo at 2 mg/kg: read-out: variations on heart rate
[2] = test system: spontaneously hypertensive rats (SHR); test: Effect on reducing blood pressure of spontaneously hypertensive rats (SHR) by multiple oral administrations; format: in vivo
[3] = renal artery-ligated rat, 24 hours after the administration, dose not stated
[4] = renal artery-ligated rat, result in words
[5] = Rattus norvegicus, 0.5 mg/kg oral once per day, SHR, 1 hour after the administration, read-out: Maximum blood pressure reduction, 1st-day administration
[6] = Rattus norvegicus, 0.5 mg/kg oral once per day, SHR, 1 hour after the administration, read-out: Maximum blood pressure reduction, 7th-day administration
[7] = Rattus norvegicus, 0.5 mg/kg oral once per day, SHR, 1 hour after the administration, read-out: Maximum blood pressure reduction, 14th-day administration
[8] = Rattus norvegicus, 1.0 mg/kg oral once per day, SHR, 1 hour after the administration, read-out: Maximum blood pressure reduction, 1st-day administration
[9] = Rattus norvegicus, 1.0 mg/kg oral once per day, SHR, 1 hour after the administration, read-out: Maximum blood pressure reduction, 7th-day administration
[10] = Rattus norvegicus, 1.0 mg/kg oral once per day, SHR, 1 hour after the administration, read-out: Maximum blood pressure reduction, 14th-day administration
[11] = Rattus norvegicus, 1.0 mg/kg oral, SHR, read-out: Heart Rate (effect on reducing heart rate)
[12] = Rattus norvegicus, 2.0 mg/kg oral once per day, SHR, 1 hour after the administration, read-out: Maximum blood pressure reduction, 1st-day administration
[13] = Rattus norvegicus, 2.0 mg/kg oral once per day, SHR, 1 hour after the administration, read-out: Maximum blood pressure reduction, 7th-day administration
[14] = Rattus norvegicus, 2.0 mg/kg oral once per day, SHR, 1 hour after the administration, read-out: Maximum blood pressure reduction, 14th-day administration
[15] = Rattus norvegicus, 2.0 mg/kg oral, SHR, read-out: Heart Rate (effect on reducing heart rate)
[16] = during the whole administration, result in words

Row | Compound | change in vivo at 0.5 mg/kg [1] [%] | inhibition in vivo at 0.5 mg/kg [1] [%] | change in vivo at 1 mg/kg [1] [%] | inhibition in vivo at 1 mg/kg [1] [%] | change in vivo at 2 mg/kg [1] [%] | inhibition in vivo at 2 mg/kg [1] [%] | blood pressure reduction effect compared with Azilsartan medoxomil [1, 4] | inhibition in vivo at 0.5 mg/kg (normal rats) [%] | inhibition in vivo at 1 mg/kg (normal rats) [%] | inhibition in vivo at 2 mg/kg (normal rats) [%] | change in vivo at 0.5 mg/kg (normal rats) [%] | change in vivo at 1 mg/kg (normal rats) [%] | change in vivo at 2 mg/kg (normal rats) [%] | inhibition in vivo at 0.5 mg/kg [2, 5] [%] | inhibition in vivo at 0.5 mg/kg [2, 6] [%] | inhibition in vivo at 0.5 mg/kg [2, 7] [%] | inhibition in vivo at 1 mg/kg [2, 8] [%] | inhibition in vivo at 1 mg/kg [2, 9] [%] | inhibition in vivo at 1 mg/kg [2, 10] [%] | inhibition in vivo at 2 mg/kg [2, 12] [%] | other results
1 | CCOc1nc2cccc(C(=O)OCc3c(-c4ccccc4)no[n+]3[O-])c2n1Cc1ccc(-c2ccccc2-c2noc(=O)[nH]2)cc1 [QR01009] | -12 ± 4 | 22 ± 2.8 | -25 ± 5 | 36 ± 3.2 | -28 ± 8 | 43 ± 6.7 | obviously superior to that of the Azilsartan medoxomil positive drug | 3.1 ± 2.4 | 5.6 ± 1.9 | 4.8 ± 5.8 | -5 ± 2 | 4 | -8 ± 5 | 24 ± 6.8 | 28 ± 5.3 | 25 ± 4.9 | 42 ± 6.3 | 41 ± 5.9 | 45 ± 6.7 | 45 ± 5.6 | blood pressure reduction at 24 hours after the administration [1, 3]: 25%; lasting time of the blood pressure reduction effect compared with Azilsartan medoxomil [1, 4]: close to that of Azilsartan medoxomil; inhibition in vivo at 0.5 mg/kg ([2]; Rattus norvegicus, 0.5 mg/kg oral, SHR, read-out: Heart Rate (effect on reducing heart rate)): 23 ± 3%; inhibition in vivo at 1 mg/kg [2, 11]: 24 ± 2%; inhibition in vivo at 2 mg/kg [2, 13]: 48 ± 4.6%; inhibition in vivo at 2 mg/kg [2, 14]: 43 ± 7.2%; inhibition in vivo at 2 mg/kg [2, 15]: 27 ± 5%; blood pressure reduction effect compared with Azilsartan medoxomil ([2]; SHR, result in words): obviously superior to that of the Azilsartan medoxomil positive drug; reduction effects on the heart rate of SHR rats [2, 16]: significant reduction effects on the heart rate
2 | CCOc1nc2cccc(C(=O)OCOC(=O)OCc3nc(C)c(C)nc3C)c2n1Cc1ccc(-c2ccccc2-c2noc(=O)[nH]2)cc1 [QR01017] | – | – | – | – | – | – | – | – | – | – | – | – | – | – | – | – | – | – | – | – | Maximum blood pressure reduction ([1]; rat, in vivo): 25 ± 6.2% and 38 ± 3.5% and 46 ± 2.6%; blood pressure reduction at 24 hours after the administration ([1]; rat, in vivo): 20%; blood pressure reduction effect compared with Azilsartan medoxomil ([1]; rat, in vivo): obviously superior to that of the Azilsartan medoxomil positive drug; lasting time of the blood pressure reduction effect compared with Azilsartan medoxomil ([1]; rat, in vivo): close to that of Azilsartan medoxomil; Variations on heart rate (normal rats; rat, in vivo): −5 ± 2% and −2 ± 4% and −4 ± 3%; blood pressure reduction at 8 h after the administration (normal rats; rat, in vivo): 2.9 ± 4.5% and 3.3 ± 4.1% and 5.1 ± 3.2%; Heart Rate (effect on reducing heart rate) ([2]; rat, in vivo): 18 ± 5% and 24 ± 4% and 29 ± 6%; Maximum blood pressure reduction, 1st-day administration ([2]; rat, in vivo): 22 ± 5.0% and 34 ± 4.4% and 36 ± 4.5%; Maximum blood pressure reduction, 7th-day administration ([2]; rat, in vivo): 22 ± 3.3% and 35 ± 3.9% and 38 ± 2.1%; Maximum blood pressure reduction, 14th-day administration ([2]; rat, in vivo): 23 ± 3.9% and 36 ± 3.2% and 38 ± 3.6%; reduction effects on the heart rate of SHR rats ([2]; rat, in vivo): significant reduction effects on the heart rate
3 | CCOc1nc2cccc(C(=O)OC(C)OC(=O)OC(C)C)c2n1Cc1ccc(-c2ccccc2-c2noc(=O)[nH]2)cc1 (stereo not shown) [QR01003] | 2 | 15 ± 1.8 | -3 ± 2 | 28 ± 2.9 | -5 ± 2 | 36 ± 4.3 | close to that of Azilsartan medoxomil | 5.6 ± 3.1 | 5.4 ± 1.9 | 6.4 ± 3.4 | -2 ± 2 | 4 | -3 ± 4 | 18 ± 4.6 | 21 ± 6.3 | 17 ± 6.8 | 31 ± 6.8 | 35 ± 7.3 | 36 ± 8.1 | 39 ± 5 | inhibition in vivo at 2 mg/kg [2, 13]: 41 ± 5.7%; inhibition in vivo at 2 mg/kg [2, 14]: 44 ± 6.1%
4 | CCOc1nc2cccc(C(=O)OCOC(=O)C(C)(C)C)c2n1Cc1ccc(-c2ccccc2-c2noc(=O)[nH]2)cc1 [QR01005] | -10 ± 3 | 16 ± 3.2 | -21 ± 6 | 36 ± 3.1 | -25 ± 6 | 43 ± 3.5 | obviously superior to that of the Azilsartan medoxomil positive drug | 6.3 ± 1.3 | 3.6 ± 2.1 | 4.8 ± 2.3 | -3 ± 1 | -6 ± 6 | 8 | 16 ± 4.8 | 18 ± 5.2 | 21 ± 3.9 | 38 ± 3.7 | 40 ± 6.2 | 42 ± 6.1 | 45 ± 4.8 | blood pressure reduction at 24 hours after the administration [1, 3]: 21%; lasting time of the blood pressure reduction effect compared with Azilsartan medoxomil [1, 4]: close to that of Azilsartan medoxomil; inhibition in vivo at 1 mg/kg [2, 11]: 23 ± 6%; inhibition in vivo at 2 mg/kg [2, 13]: 41 ± 6.2%; inhibition in vivo at 2 mg/kg [2, 14]: 45 ± 7.2%; inhibition in vivo at 2 mg/kg [2, 15]: 21 ± 4%; inhibition in vivo at 5 mg/kg ([2]; Rattus norvegicus, 5 mg/kg oral, SHR, read-out: Heart Rate (effect on reducing heart rate)): 18 ± 5%; blood pressure reduction effect compared with Azilsartan medoxomil ([2]; SHR, result in words): obviously superior to that of the Azilsartan medoxomil positive drug; reduction effects on the heart rate of SHR rats [2, 16]: significant reduction effects on the heart rate
5 | CCOc1nc2cccc(C(=O)OCc3no[n+]([O-])c3C(C)(C)C)c2n1Cc1ccc(-c2ccccc2-c2noc(=O)[nH]2)cc1 [QR01026] | -8 ± 6 | 16 ± 2.8 | -10 ± 5 | 24 ± 6.5 | -10 ± 6 | 31 ± 2.8 | – | 5.2 ± 3.2 | 4.3 ± 5.1 | 3.8 ± 4.5 | -5 ± 8 | -3 ± 7 | -4 ± 7 | – | – | – | – | – | – | – | –
6 | CCOc1nc2cccc(C(=O)OCc3c(C)no[n+]3[O-])c2n1Cc1ccc(-c2ccccc2-c2noc(=O)[nH]2)cc1 [QR01025] | 4 ± 6 | 18 ± 3.4 | -7 ± 5 | 22 ± 4.5 | -7 ± 3 | 28 ± 3.2 | – | 3.3 ± 3.2 | 6.2 ± 3.8 | 3.7 ± 4.1 | -2 ± 3 | 6 | -3 ± 4 | – | – | – | – | – | – | – | –
7 | CCOc1nc2cccc(C(=O)OC(OC(=O)OCc3nc(C)c(C)nc3C)C(C)(C)C)c2n1Cc1ccc(-c2ccccc2-c2noc(=O)[nH]2)cc1 (stereo not shown) [QR01028] | -6 ± 2 | 15 ± 0.9 | -6 ± 4 | 18 ± 4.2 | -12 ± 5 | 25 ± 3.6 | – | 1.7 ± 5.3 | 3.9 ± 5.2 | 2.5 ± 4.6 | -4 ± 3 | -3 ± 4 | -2 ± 3 | – | – | – | – | – | – | – | –
8 | CCOc1nc2cccc(C(=O)OCCO[N+](=O)[O-])c2n1Cc1ccc(-c2ccccc2-c2noc(=O)[nH]2)cc1 [QR01016] | 1 | 11 ± 3.1 | 5 | 12 ± 9.2 | 4 | 15 ± 6.5 | – | 3.6 ± 2.8 | 4.2 ± 5.7 | 5.9 ± 3.2 | 1 | 5 | 3 | – | – | – | – | – | – | – | –
9 | CCOc1nc2cccc(C(=O)OC3COC4C(O[N+](=O)[O-])COC34)c2n1Cc1ccc(-c2ccccc2-c2noc(=O)[nH]2)cc1 (stereo not shown) [QR01007] | -3 ± 1 | 10 ± 1.5 | -8 ± 3 | 12 ± 2 | -5 ± 2 | 18 ± 3.5 | – | 3.5 ± 3.4 | 2.5 ± 4.6 | 3.7 ± 4.3 | -3 ± 2 | -7 ± 2 | 5 | – | – | – | – | – | – | – | –
